# Measured values published in PubChem BioAssay (NCI).
#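 Following 48 hours of exposure in 96-well plates, responses at five concentrations were used to interpolate endpoints linearly. GI50: concentration for 50% inhibition of growth. Definition used: TGI = concentration required for complete inhibition of growth.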
# Columns and labels:
# Test in all cases: NCI-60 cell line screen, 48 h
# [1] = test system: SR leukemia
# [2] = test system: EKVX NSCLC
# [3] = test system: OVCAR-3 ovarian
# [4] = test system: M14 melanoma
# [5] = test system: MCF7 breast
# [6] = test system: HCT-15 colon
# [7] = test system: SK-MEL-28 melanoma
# [8] = test system: LOX IMVI melanoma
# [9] = test system: HS 578T breast
# [10] = test system: NCI/ADR-RES ovarian
# [11] = test system: SW-620 colon
# [12] = test system: SNB-75 CNS
# [13] = test system: TK-10 renal
# [14] = test system: MALME-3M melanoma
# [15] = test system: IGROV1 ovarian
# [16] = test system: SK-MEL-5 melanoma
# [17] = test system: OVCAR-5 ovarian
# [18] = test system: A498 renal
# [19] = test system: T-47D breast
# [20] = test system: 786-0 renal
# [21] = test system: CAKI-1 renal
# [22] = test system: UO-31 renal
# [23] = test system: RXF 393 renal
# [24] = test system: HL-60(TB) leukemia
# [25] = test system: KM12 colon
# [26] = test system: SF-268 CNS
# [27] = test system: K-562 leukemia
# [28] = test system: PC-3 prostate
# [29] = test system: RPMI-8226 leukemia
# [30] = test system: A549 NSCLC
# [31] = test system: NCI-H226 lung
# [32] = test system: HOP-92 NSCLC
# [33] = test system: DU-145 prostate
# [34] = test system: SN12C renal
# [35] = test system: SK-MEL-2 melanoma
# [36] = test system: NCI-H460 lung
# [37] = test system: HT29 colon
# [38] = test system: MOLT-4 leukemia
# [39] = test system: OVCAR-4 ovarian
# [40] = test system: MDA-MB-435
# [41] = test system: CCRF-CEM leukemia
# [42] = test system: MDA-MB-231 breast
# [43] = test system: HOP-62 NSCLC
# [44] = test system: HCT-116 colon
# [45] = test system: U251 CNS
# [46] = test system: UACC-257 melanoma
# [47] = test system: SNB-19 CNS
# [48] = test system: COLO 205 colon
# [49] = test system: NCI-H522 lung
# [50] = test system: ACHN renal
# [51] = test system: OVCAR-8 ovarian
# [52] = test system: HCC-2998 colon
# [53] = test system: SF-295 CNS
# [54] = test system: NCI-H23 lung
# [55] = test system: UACC-62 melanoma
# [56] = test system: SK-OV-3 ovarian
# [57] = test system: BT-549 breast
# [58] = test system: SF-539 CNS
smiles,measurement,setting,value
COc1ccc(N2C(=O)C3c4[nH]c5ccc(C)cc5c4C4CCC(c5ccccc5)CC4C3C2=O)cc1 (configuration not stated),TGI,[1],23.6 µM
same,TGI,[2],> 100 µM
same,TGI,[3],> 100 µM
same,TGI,[4],> 100 µM
same,TGI,[5],> 100 µM
same,TGI,[6],> 100 µM
same,TGI,[7],> 100 µM
same,TGI,[8],> 100 µM
same,TGI,[9],> 73.4 µM
same,TGI,[10],> 100 µM
same,TGI,[11],> 100 µM
same,TGI,[12],12 µM
same,TGI,[13],> 75.3 µM
same,TGI,[14],> 100 µM
same,TGI,[15],> 100 µM
same,TGI,[16],> 100 µM
same,TGI,[17],> 100 µM
same,TGI,[18],> 68.8 µM
same,TGI,[19],> 100 µM
same,TGI,[20],> 62.2 µM
same,TGI,[21],> 72.5 µM
same,TGI,[22],> 100 µM
same,TGI,[23],41 µM
same,TGI,[24],> 100 µM
same,TGI,[25],> 100 µM
same,TGI,[26],> 100 µM
same,TGI,[27],98.9 µM
same,TGI,[28],> 100 µM
same,TGI,[29],> 100 µM
same,TGI,[30],> 100 µM
same,TGI,[31],> 100 µM
same,TGI,[32],> 90.2 µM
same,TGI,[33],> 100 µM
same,TGI,[34],> 100 µM
same,TGI,[35],> 69.4 µM
same,TGI,[36],> 100 µM
same,TGI,[37],> 100 µM
same,TGI,[38],> 100 µM
same,TGI,[39],> 82.3 µM
same,TGI,[40],> 100 µM
same,TGI,[41],> 55.5 µM
same,TGI,[42],> 49.5 µM
same,TGI,[43],26.8 µM
same,TGI,[44],> 100 µM
same,TGI,[45],98.6 µM
same,TGI,[46],> 100 µM
same,TGI,[47],> 66.5 µM
same,TGI,[48],> 100 µM
same,TGI,[49],> 100 µM
same,TGI,[50],> 100 µM
same,TGI,[51],> 83.9 µM
same,TGI,[52],> 100 µM
same,TGI,[53],> 100 µM
same,TGI,[54],> 100 µM
same,TGI,[55],> 79.5 µM
same,TGI,[56],> 100 µM
same,TGI,[57],> 100 µM
CCN(CC)CCOc1nc2c3ccc(Cl)cc3nn2c2ccccc12,GI50,[1],2.12 µM
same,TGI,[1],15.8 µM
same,GI50,[2],2.62 µM
same,TGI,[2],9.71 µM
same,GI50,[3],2.86 µM
same,TGI,[3],9.42 µM
same,GI50,[4],1.76 µM
same,TGI,[4],3.95 µM
same,GI50,[5],1.96 µM
same,TGI,[5],6.08 µM
same,GI50,[7],1.89 µM
same,TGI,[7],3.57 µM
same,GI50,[8],1.44 µM
same,TGI,[8],3.05 µM
same,GI50,[9],2.59 µM
same,TGI,[9],11.3 µM
same,GI50,[10],1.89 µM
same,TGI,[10],8.24 µM
same,GI50,[11],1.42 µM
same,TGI,[11],4.13 µM
same,GI50,[12],1.58 µM
same,TGI,[12],8.35 µM
same,GI50,[13],3.88 µM
same,TGI,[13],16.1 µM
same,GI50,[14],1.6 µM
same,TGI,[14],3.22 µM
same,GI50,[15],1.54 µM
same,TGI,[15],4.62 µM
same,GI50,[16],1.73 µM
same,TGI,[16],3.12 µM
same,GI50,[17],2.67 µM
same,TGI,[17],10.3 µM
same,GI50,[18],1.62 µM
same,TGI,[18],3.05 µM
same,GI50,[19],3.51 µM
same,TGI,[19],18.8 µM
same,GI50,[20],1.69 µM
same,TGI,[20],3.67 µM
same,GI50,[21],1.45 µM
same,TGI,[21],2.97 µM
same,GI50,[22],1.07 µM
same,TGI,[22],2.66 µM
same,GI50,[23],1.75 µM
same,TGI,[23],3.94 µM
same,GI50,[24],2.06 µM
same,TGI,[24],5.64 µM
same,GI50,[25],1.96 µM
same,TGI,[25],4.69 µM
same,GI50,[26],2.89 µM
same,TGI,[26],11 µM
same,GI50,[27],2.73 µM
same,TGI,[27],> 100 µM
same,GI50,[28],2.29 µM
same,TGI,[28],9.94 µM
same,GI50,[30],1.87 µM
same,TGI,[30],4.63 µM
same,GI50,[31],2.06 µM
same,TGI,[31],10.2 µM
same,GI50,[32],1.4 µM
same,TGI,[32],6.41 µM
same,GI50,[33],2.4 µM
same,TGI,[33],6.07 µM
same,GI50,[34],2.21 µM
same,TGI,[34],10.1 µM
same,GI50,[35],2.16 µM
same,TGI,[35],4.94 µM
same,GI50,[36],2.61 µM
same,TGI,[36],7.5 µM
same,GI50,[37],2.04 µM
same,TGI,[37],9.9 µM
same,GI50,[38],2.77 µM
same,TGI,[38],> 100 µM
same,GI50,[58],1.71 µM
same,TGI,[58],3.84 µM
same,GI50,[39],2.78 µM
same,TGI,[39],9.06 µM
same,GI50,[40],1.15 µM
same,TGI,[40],2.79 µM
same,GI50,[41],2.25 µM
same,TGI,[41],12.8 µM
same,GI50,[42],2.02 µM
same,TGI,[42],7.03 µM
same,GI50,[43],2.38 µM
same,TGI,[43],12.5 µM
same,GI50,[44],1.4 µM
same,TGI,[44],3.53 µM
same,GI50,[45],2.11 µM
same,TGI,[45],5.4 µM
same,GI50,[46],1.89 µM
same,TGI,[46],4.02 µM
same,GI50,[47],3.28 µM
same,TGI,[47],36.1 µM
same,GI50,[48],1.55 µM
same,TGI,[48],4.55 µM
same,GI50,[49],2.37 µM
same,TGI,[49],6.43 µM
same,GI50,[50],1.32 µM
same,TGI,[50],3.36 µM
same,GI50,[51],2.64 µM
same,TGI,[51],55.9 µM
same,GI50,[52],1.62 µM
same,TGI,[52],3.43 µM
same,GI50,[53],1.79 µM
same,TGI,[53],4.18 µM
same,GI50,[54],1.81 µM
same,TGI,[54],4.9 µM
same,GI50,[55],1.79 µM
same,TGI,[55],3.7 µM
same,GI50,[56],2.49 µM
same,TGI,[56],21.4 µM
same,GI50,[57],3.54 µM
same,TGI,[57],17.5 µM
O=CC1C(Cl)=Nc2nc3ccccc3n2C1c1ccc([N+](=O)[O-])cc1 (configuration not stated),TGI,[1],5.97 µM
same,TGI,[2],53.5 µM
same,TGI,[3],> 100 µM
same,TGI,[4],> 100 µM
same,TGI,[5],67.9 µM
same,TGI,[7],5.09 µM
same,TGI,[9],> 100 µM
same,TGI,[10],> 100 µM
same,TGI,[11],> 100 µM
same,TGI,[12],5.28 µM
same,TGI,[13],16.1 µM
same,TGI,[14],31.6 µM
same,TGI,[15],26 µM
same,TGI,[16],37.9 µM
same,TGI,[17],> 100 µM
same,TGI,[18],47.4 µM
same,TGI,[19],4.19 µM
same,TGI,[20],> 100 µM
same,TGI,[21],7.65 µM
same,TGI,[22],14.8 µM
same,TGI,[23],7.15 µM
same,TGI,[24],20.2 µM
same,TGI,[25],82.9 µM
same,TGI,[26],62.2 µM
same,TGI,[27],78.5 µM
same,TGI,[28],> 100 µM
same,TGI,[29],> 100 µM
same,TGI,[30],> 100 µM
same,TGI,[31],9.27 µM
same,TGI,[32],20.7 µM
same,TGI,[33],32.4 µM
same,TGI,[34],51.4 µM
same,TGI,[35],21.4 µM
same,TGI,[36],94 µM
same,TGI,[38],6.29 µM
same,TGI,[58],> 100 µM
same,TGI,[39],30.9 µM
same,TGI,[40],27.8 µM
same,TGI,[41],> 100 µM
same,TGI,[42],45.4 µM
same,TGI,[43],> 100 µM
same,TGI,[44],> 100 µM
same,TGI,[45],44.5 µM
same,TGI,[46],31.5 µM
same,TGI,[47],36.3 µM
same,TGI,[48],> 100 µM
same,TGI,[49],12.8 µM
same,TGI,[51],27.7 µM
same,TGI,[52],49.4 µM
same,TGI,[53],50.7 µM
same,TGI,[54],57.1 µM
same,TGI,[55],35.6 µM
same,TGI,[57],2.58 µM
